Holding throughout (assay): growth of human tumour cells (NCI), 48 h
Experiment [1] relates to 786-0 renal.
The subject of experiment [2] is ACHN renal.
Experiment [3] concerns HT29 colon.
For experiment [4], the system named is IGROV1 ovarian.
The test system of experiment [5] is LOX IMVI melanoma.
The test system of experiment [6] is NCI-H226 lung.
Experiment [7] relates to OVCAR-4 ovarian.
The test system of experiment [8] is SF-268 CNS.
Experiment [9] has as its system SK-MEL-28 melanoma.
The subject of experiment [10] is SNB-75 CNS.

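48-hour exposure; five concentrations; linearly interpolated endpoints. GI50 marks 50% less growth. TGI denotes the concentration required for complete inhibition of growth.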

For the compound `ON(CCc1ccncc1)Cc1ccccc1`, the TGI in [1], in experiment [2], in experiment [3], in experiment [4], in experiment [5] and in experiment [6] was above 100 µM in each case. Further, the TGI in experiment [7], in experiment [8], in [9] and in [10] was above 100 µM each time.

`CCN(CC)CCOc1ccc(Nc2ncc3cc(-c4c(Cl)cccc4Cl)c(=O)n(CCOC)c3n2)cc1`: the GI50 is 0.0324 µM in experiment [1]; 0.0205 µM in [2]; 0.105 µM in [3]; 0.0138 µM in experiment [4]; 0.0318 µM in [5]; 0.1 µM in [6]. Also, the GI50 is 0.946 µM in experiment [7], 0.145 µM in experiment [8], 1.71 µM in experiment [9] and 0.00601 µM in experiment [10]. Moreover, the TGI in experiment [1] came out at 5.28 µM; in experiment [2], 5.72 µM; in experiment [3], 2.27 µM; in experiment [4] it was 0.0983 µM; in [5], 0.153 µM; in experiment [6], 7.89 µM. Besides, the TGI came to 6.99 µM in [7], 1.29 µM in experiment [8], 8.97 µM in experiment [9] and 0.0454 µM in experiment [10].

For the compound `COc1ccc(C2=CC(c3cc(OC)c(OC)c(OC)c3)NC(=O)N2)cc1OC` (stereo not given), the GI50 in experiment [1] is 4.65 µM; in [2], 3.5 µM; in experiment [3] it was 4.05 µM; in experiment [4] it was 3.8 µM; in experiment [5], 3.05 µM; in experiment [6], 8.4 µM. In addition, the GI50 is 3.61 µM in experiment [7], 3.46 µM in experiment [8], 6.97 µM in experiment [9] and 2.42 µM in experiment [10]. The TGI in experiment [1] is 15.6 µM; in [2], 43.6 µM; in experiment [3], 15.1 µM; in experiment [4], 20.4 µM; in experiment [5], 11.7 µM; in experiment [6], above 100 µM. Besides, the TGI was above 100 µM in [7], 14.5 µM in experiment [8], 20.5 µM in [9] and 7.95 µM in experiment [10].

`NC1C2C(CC(=O)O)OCC=C3CN4CCC1(C(=O)C(=O)O)C4CC32` (stereo not given): the TGI in [1], in [2], in experiment [3], in experiment [4], in experiment [5] and in experiment [6] was above 100 µM in each case. In addition, the TGI in [7], in [8], in [9] and in [10] was above 100 µM throughout.

For `CC1=C(C(=O)Nc2ccc3[nH]ncc3c2)C(c2ccc(F)cc2)NC(=O)N1` (stereo not given), the GI50 was above 25 µM in experiment [1]; above 25 µM in experiment [2]; above 25 µM in experiment [3]; above 25 µM in experiment [4]; above 25 µM in [5]; 6.46 µM in experiment [6]. Besides, the GI50 in [7] is above 25 µM; in experiment [8] it was 23.4 µM; in experiment [9], above 25 µM; in experiment [10], 6.51 µM. Besides, the TGI in experiment [1], in experiment [2], in [3], in experiment [4], in [5] and in experiment [6] was above 25 µM throughout. Moreover, the TGI in [7], in experiment [8], in [9] and in experiment [10] was above 25 µM each time.

Regarding `COc1cc(C(=O)/C=C/c2c(-c3ccc(F)cc3)nc3sc(C)cn23)cc(OC)c1OC`, the GI50 in experiment [1] was 8.88 µM; in experiment [2], 5.83 µM; in [3], 6.96 µM; in [4], 8.71 µM; in experiment [5], 2.5 µM; in experiment [6], 9.58 µM. Further, the GI50 in [7] is 2.28 µM; in experiment [8], 15.2 µM; in experiment [9], 7.07 µM; in experiment [10] it was 50.1 µM. Moreover, the TGI in experiment [1], in [2], in experiment [3], in [4], in experiment [5] and in [6] was above 100 µM in each case. Moreover, the TGI in experiment [7], in experiment [8], in experiment [9] and in experiment [10] was above 100 µM each time.

As for `C=C1C(=O)O[C@H]2[C@H]1CC/C(CNS(=O)(=O)c1ccc3ccccc3c1)=C\CC[C@@]1(C)O[C@@H]21`, the GI50 is 1.62 µM in [1]; 0.514 µM in experiment [2]; 1.94 µM in experiment [3]; 2.87 µM in experiment [4]; 1.43 µM in [5]; 13.9 µM in [6]. For the same compound, the GI50 in experiment [7] is 4.2 µM; in experiment [8] it was 2.72 µM; in [9], 1.57 µM; in experiment [10] it was 10.5 µM. The TGI in experiment [1] came to 3.22 µM; in experiment [2], 1.91 µM; in experiment [3], 3.91 µM; in experiment [4], 8.2 µM; in [5], 2.77 µM; in experiment [6], 34.8 µM. Besides, the TGI in [7] is 18.7 µM; in [8], 10.1 µM; in experiment [9], 3.57 µM; in experiment [10], 23.6 µM.

On to `O=S(=O)([O-])[O-].[Cl-].[NH2-].[NH2-].[NH2-].[NH2-].[Ru+3].c1ccc(-c2cccnc2)cc1`, for which the GI50 in experiment [1], in [2], in experiment [3], in experiment [4], in experiment [5] and in [6] was above 100 µM in each case. Also, the GI50 in experiment [7] was above 100 µM; in experiment [8] it was above 100 µM; in experiment [9], above 100 µM; in [10] it was 88.9 µM. Further, the TGI in experiment [1], in experiment [2], in experiment [3], in experiment [4], in [5] and in [6] was above 100 µM each time. Further, the TGI in experiment [7], in [8], in [9] and in experiment [10] was above 100 µM throughout.

The values are drawn from PubChem BioAssay (NCI).
